Values after ≈ are worked out from the molar mass of the structure shown.
Columns and labels:
Assay in all cases: inhibition of bacterial growth, MIC (agar)
Type in all cases: cell-based
Klebsiella aerogenes A = conditions: read-out: concentration required to inhibit growth (MIC)
Shigella sonnei MB 11967 = conditions: MB11967, read-out: concentration required to inhibit growth (MIC)
Staph. aureus Russell = conditions: Staphylococcus aureus, read-out: concentration required to inhibit growth (MIC)
Staph. aureus 1517 = conditions: Staphylococcus aureus, read-out: concentration required to inhibit growth (MIC)
Staph. aureus Oxford = conditions: Staphylococcus aureus, read-out: concentration required to inhibit growth (MIC)
Strep pyogenes CN10 = conditions: Streptococcus pyogenes, Staph. pyogenes CN 10 (so in the source), read-out: concentration required to inhibit growth (MIC)
E. coli 0111 = conditions: Escherichia coli, read-out: concentration required to inhibit growth (MIC)
Proteus mirabilis C977 = conditions: read-out: concentration required to inhibit growth (MIC)
[1] = system: Salmonella typhimurium CT10; conditions: Salmonella enterica, read-out: concentration required to inhibit growth (MIC)
Bacillus subtilis A = conditions: read-out: concentration required to inhibit growth (MIC)
Citrobacter freundii E8 = conditions: read-out: concentration required to inhibit growth (MIC)
Enterobacter cloacae N1 = conditions: read-out: concentration required to inhibit growth (MIC)
Serratia marcescens US20 = conditions: read-out: concentration required to inhibit growth (MIC)
Proteus morganii I 580 = conditions: Morganella morganii, I580, read-out: concentration required to inhibit growth (MIC)
Proteus rettgeri WM16 = conditions: Providencia rettgeri, read-out: concentration required to inhibit growth (MIC)
Salmonella typhimurium = conditions: Salmonella enterica, Salmonella typhimurium (strain not given), read-out: concentration required to inhibit growth (MIC)

Structure (SMILES)	MIC (Klebsiella aerogenes A) [µg/mL]	MIC (Shigella sonnei MB 11967) [µg/mL]	MIC (Staph. aureus Russell) [µg/mL]	MIC (Staph. aureus 1517) [µg/mL]	MIC (Staph. aureus Oxford) [µg/mL]	MIC (Strep pyogenes CN10) [µg/mL]	MIC (E. coli 0111) [µg/mL]	MIC (Proteus mirabilis C977) [µg/mL]	MIC [1] [µg/mL]	MIC (Bacillus subtilis A) [µg/mL]	MIC (Citrobacter freundii E8) [µg/mL]	MIC (Enterobacter cloacae N1) [µg/mL]	MIC (Serratia marcescens US20) [µg/mL]	MIC (Proteus morganii I 580) [µg/mL]	MIC (Proteus rettgeri WM16) [µg/mL]	MIC (Salmonella typhimurium) [µg/mL]
COC(=O)/C=C/C[C@@H]1C(=O)N2C(C(=O)OC3OC(=O)c4ccccc43)=CC[C@H]12 (relative stereo) [Compound 41, Phthalidyl 6-(3-methoxycarbonyl-2-propen-1-yl)-7-oxo-1-azabicyclo[3,2,0]hept-2-ene-2-carboxylate]	50 (≈ 130 µM)	50 (≈ 130 µM)	≤ 0.8	≤ 0.8	≤ 0.8	≤ 0.8	50 (≈ 130 µM)	100 (≈ 261 µM)	50 (≈ 130 µM)							
N#C/C=C/C[C@@H]1C(=O)N2C(C(=O)OCc3ccccc3)=CC[C@H]12 (relative stereo) [Compound 56, Benzyl 6-(3-cyano-2-propen-1-yl)-7-oxo-1-azabicyclo[3,2,0]hept-2-ene-2-carboxylat]	20 (≈ 64.9 µM)	20 (≈ 64.9 µM)	≤ 2	≤ 2	≤ 2		20 (≈ 64.9 µM)	20 (≈ 64.9 µM)	20 (≈ 64.9 µM)	20 (≈ 64.9 µM)	20 (≈ 64.9 µM)	20 (≈ 64.9 µM)	20 (≈ 64.9 µM)	20 (≈ 64.9 µM)	20 (≈ 64.9 µM)	
N#C/C=C/C[C@@H]1C(=O)N2C(C(=O)OC3OC(=O)c4ccccc43)=CC[C@H]12 (relative stereo) [Compound 61, Phthalidyl 6-(3-cyano-2-propen-1-yl)-7-oxo-1-azabicyclo[3.2.0]hept-2-ene-2-carboxylat]																7 (≈ 20 µM)
CC(C)(O)[C@@H]1C(=O)N2C(C(=O)OCc3ccccc3)=CC[C@H]12 (relative stereo) [Example 4 cis-isomer, Benzyl 6-(2-hydroxy-2-propyl)-7-oxo-1-azabicyclo[3,2,0]hept-2-ene-2-carboxylate]	≤ 2	≤ 2	≤ 2		≤ 2							20 (≈ 66.4 µM)	20 (≈ 66.4 µM)			
